Laboratory results: US20150344540A1, “NOVEL GLP-1 RECEPTOR AGONISTS WITH CHOLESTEROL EFFLUX ACTIVITY” (NOVO NORDISK A/S, priority 2012, published 2015)

Tests used:
[1] = system: Mouse monocyte/macrophage cell line, RAW 264.7; test: Cholesterol efflux assay (3H-cholesterol, macrophage cell line); format: cell-based; settings: RAW 264.7, 4 hrs incubation, 0.1% human serum albumin, ABCA1-mediated efflux
[2] = Physical stability assay, dynamic light scattering; format: physicochemical
Source text: Physical stability can be assessed by dynamic and static light scattering. In dynamic light scattering, microsecond fluctuations in scattered laser light incident on a aqueous sample is detected and transformed into diffusion coefficients (Df) of the individual species via the so-called autocorrelation function. For convenience, the diffusion coefficients are typically reported in hydrodynamic radii (Rh) assuming the sample to consist of spherical species. Furthermore, from the radii, an empirical estimate of the molecular weight is obtained. Dynamic light scattering is extremely sensitive and can resolve very small amounts of aggregated species that are undesirable in pharmaceutical formulations. The average, static intensity recorded by the detector also serves as an overall measure of the physical stability of the sample as development of larger species increase the scattered intensity drastically. In order to measure the physical stability of peptides, DLS was applied to aqueous solutions of peptides. Measurements were performed on a Wyatt (Santa Barbara, Calif.) DynaPro DLS plate reader at 25° C., and samples were kept at 37° C. between measurements. Samples were measured for up to two weeks. Measurements were performed in […] triplicate in Corning 3540 384-well microtiter plates (Corning, N.Y.) sealed with transparent plastic foil (Thermo Fischer Scientific, Waltham, Mass.) with twenty 10-second acquisitions per measurement. Autocorrelation curves were fitted with a regularization fit in Dynamics 7.1.7.16 and the resulting diffusion coefficients were transformed into hydrodynamic radii and molecular mass assuming a spherical shape (Table 2). Normalized intensities are reported as is.
Judging from the autocorrelation functions and the normalized static intensity, only minute amounts of aggregate were present at any time independent of sample concentration.

Inorm avg. ([2]; 0.9 mg/mL, 37° C., t 0 days): 1.15E+06 kcts | Rh avg. ([2]; 0.9 mg/mL, 37° C., t 0 days): 2.32 nm | Inorm avg. ([2]; 0.9 mg/mL, 37° C., t 1 days): 1.48E+06 kcts | Rh avg. ([2]; 0.9 mg/mL, 37° C., t 1 days): 2.31 nm | Inorm avg. ([2]; 0.9 mg/mL, 37° C., t 4 days): 3.76E+06 kcts | Rh avg. ([2]; 0.9 mg/mL, 37° C., t 4 days): 1.94 nm | Inorm avg. ([2]; 0.9 mg/mL, 37° C., t 8 days): 1.27E+06 kcts | Rh avg. ([2]; 0.9 mg/mL, 37° C., t 8 days): 2.26 nm | Inorm avg. ([2]; 0.9 mg/mL, 37° C., t 13 days): 2.25E+06 kcts | Rh avg. ([2]; 0.9 mg/mL, 37° C., t 13 days): 2.44 nm | oligomer size (molecular weight consistent with number of monomers) ([2]; 20 mM phosphate pH 7.5 buffer, 0.9 mg/mL or 45.5 mg/mL): approximately 4 monomers | Inorm avg. ([2]; 45.5 mg/mL, 37° C., t 0 days): 8.33E+06 kcts | Rh avg. ([2]; 45.5 mg/mL, 37° C., t 0 days): 2.13 nm | Inorm avg. ([2]; 45.5 mg/mL, 37° C., t 1 days): 9.29E+06 kcts | Rh avg. ([2]; 45.5 mg/mL, 37° C., t 1 days): 2.27 nm | Inorm avg. ([2]; 45.5 mg/mL, 37° C., t 4 days): 1.04E+07 kcts | Rh avg. ([2]; 45.5 mg/mL, 37° C., t 4 days): 2.27 nm | Inorm avg. ([2]; 45.5 mg/mL, 37° C., t 6 days): 6.55E+06 kcts | Rh avg. ([2]; 45.5 mg/mL, 37° C., t 6 days): 2.35 nm | Inorm avg. ([2]; 45.5 mg/mL, 37° C., t 14 days): 7.18E+06 kcts | Rh avg. ([2]; 45.5 mg/mL, 37° C., t 14 days): 2.28 nm
Compound: CC[C@H](C)[C@H](NC(=O)[C@H](Cc1ccccc1)NC(=O)[C@H](CCC(=O)O)NC(=O)[C@H](CCCCN)NC(=O)[C@@H](NC(=O)[C@H](C)NC(=O)[C@H](CCC(=O)O)NC(=O)CNC(=O)[C@H](CCC(=O)O)NC(=O)[C@H](CC(C)C)NC(=O)[C@H](Cc1ccc(O)cc1)NC(=O)[C@H](CO)NC(=O)[C@H](CO)NC(=O)[C@@H](NC(=O)[C@H](CC(=O)O)NC(=O)[C@H](CO)NC(=O)[C@@H](NC(=O)[C@H](Cc1ccccc1)NC(=O)[C@@H](NC(=O)CNC(=O)[C@H](CCC(=O)O)NC(=O)C(C)(C)NC(=O)[C@@H](N)Cc1c[nH]cn1)[C@@H](C)O)[C@@H](C)O)C(C)C)C(C)C)C(=O)N[C@@H](C)C(=O)N[C@@H](Cc1c[nH]c2ccccc12)C(=O)N[C@@H](CC(C)C)C(=O)N[C@H](C(=O)N[C@@H](CCC(=O)O)C(=O)N[C@@H](CCCCN)C(=O)NC(C)(C)C(=O)N[C@@H](CCCCN)C(=O)N[C@@H](CCC(=O)O)C(=O)N[C@@H](Cc1ccccc1)C(=O)N[C@@H](CC(C)C)C(N)=O)C(C)C [Compound 1, [Aib8,Glu23,Val25,Glu34,Lys35,Aib36,Lys37]-GLP-1-(7-37)-peptidyl-Glu-Phe-Leu amide]
4 h Cholesterol Efflux Emax [1]: 100% | oligomer stability by DLS ([2]; 20 mM phosphate pH 7.5 buffer, 0.9 mg/mL or 45.5 mg/mL, 37° C., up to two weeks): remained stable throughout the sample period
